Assay results from PubChem BioAssay AID1918945 (Molecular Pharmacology Branch, DTP, NCI, 2023).

System: 883617-216-R-J1-PDC complex spheroid viability
Experiment: Anticancer human tumor 883617-216-R-J1-PDC patient-derived bladder carcinoma cell line growth inhibition
Conditions: for IC50: curve of first compound; for viability, T/C: stronger effect = lower value
Text: Multicellular complex tumor spheroid response to LSD1 Inhibitor Iadademstat in combination with a variety of drugs and investigational agents in selected tumor cell lines
The current study was undertaken to assess response to LSD1 inhibitors in combination with standard-of-care drugs and investigational agents in solid tumor complex spheroid models as well as in the K-562 leukemia. Complex spheroids include a stromal component modeled by human endothelial cells (HUVEC) and fibroblasts modeled by human mesenchymal stem cells (MSCs). The concentration ranges selected for each drug and investigational agent were based upon clinically achievable concentrations if the clinical Cmax of the agent was known.
Compounds. The drugs and investigational agents used in this study are listed on Table 1. All of the agents used, including staurosporine (NSC755774) and gemcitabine (NSC613327), were obtained from the Developmental Therapeutics Program, NCI. FDA-approved anticancer drugs are available from the NCI at http://dtp.nci.nih.gov/branches/dscb/oncology_drugset_explanation.html. Drugs and investigational agents were >95% pure by proton nuclear magnetic resonance (NMR) and liquid chromatography/mass spectrometry (LC/MS). Stock solutions were prepared at 400x in DMSO, stored at -70 degrees C, and diluted in fresh medium prior to their use. The final concentration of DMSO in cell culture wells never exceeded 0.25% (v/v). The FDA-approved anticancer drug set is available from the Developmental Therapeutics Program at https://dtp.cancer.gov/organization/dscb/obtaining/available_plates.htm. All drugs and investigational agents were tested over a range starting from a high concentration at or near the clinical Cmax and decreasing in half-log increments. If the clinical Cmax for an agent had not been determined, the highest concentration tested was 10 microM.
Cell Lines. The patient-derived cancer cell (PDC) lines: 292921-168-R-J2-PDC, K24384-001-R-PDC, and 521955-158-R2-J5-PDC pancreatic carcinomas, 556581-035-R-J1 ovarian carcinoma, 324938-238-R-J1-PDC, 855422-203-R-J1-PDC and 883617-216-R-J1-PDC urothelial bladder carcinomas, 743489-274-T-PDC renal cell carcinoma, 138582-R-J1 Merkel cell tumor, K60290-347-R-J1 and K57222-313-R-J1-PDC glioblastomas, 653999-131-R-J2-PDC, LG0703-F948-PDC, and 349418-098-R-PDC non-small cell lung carcinomas, 885512-296-R-J2-PDC, 171881-019-R-J1-PDC breast carcinomas and 186277-243-T-J2-PDC and 233499-124-R-J2-PDC colon carcinomas were obtained from the NCI Patient-Derived Models Repository (PDMR, https://pdmr.cancer.gov). The established cell lines NCI/ADR-RES (RRID:CVCL_14520 and OVCAR-5 (RRID:CVCL_1628) ovarian carcinomas, 786-O (RRID:CVCL_1051) and A498 (RRID:CVCL_A498) renal cell carcinoma, NCI-H211 (ATCC, cat. CRL-5824; RRID:CVCL_1529), NCI-H196 (ATCC, cat. CRL-5823, RRID:CVCL_1509), SW 1271 (ATCC, cat. CRL-2177, RRID:CVCL_1716) and NCI-H1876 (ATCC, cat. CRL-5902, RRID:CVCL_1503) small cell lung carcinomas, MDA-MB-231 (RRID:CVCL_0062) and MDA-MB-468 (RRID:CVCL_0419)breast carcinomas (10-12). Pooled donor human umbilical vein endothelial cells (HUVEC, Lonza, cat. CC-2519) and human mesenchymal stem cells (hMSC, Lonza, cat. PT-2501) were purchased from Lonza (Walkersville, MD).
Cell Culture. All cells were maintained in an incubator at 37 degrees C and 5% CO2 with 95% humidity. The PDC lines were cultured according to standard operating procedures established by the NCI PDMR (https://pdmr.cancer.gov). Briefly all PDCs were thawed and cultured in Matrigel-coated flasks prepared with a working solution of 1X Ham's F-12 nutrient mix, without supplementation (Invitrogen, Waltham, MA, cat. 11765054), 100 U/mL penicillin-streptomycin (Invitrogen, cat. 15140122), and 2.5% Matrigel (Corning Inc., Corning, NY, cat. 354248) for the first three passages. […]
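Further: exposure lasted seven days after three days of spheroid growth.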
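Wherever viability, T/C is given: 100% = DMSO vehicle control luminescence.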

## COc1cc(C2c3cc4c(cc3C(OC3OC5COC(C)OC5C(O)C3O)C3COC(=O)C23)OCO4)cc(OC)c1O (stereo not given) + NC1CC1c1ccc(-c2cccc(O)c2)cc1
Second compound 0.1 µM
  IC50: 163 nM
Second compound 0.316 µM
  IC50: 156 nM
Second compound 1 µM
  IC50: 92.8 nM
Second compound 3.16 µM
  IC50: 76.5 nM
Second compound 10 µM
  IC50: 58 nM
Second compound 0.1 µM, first compound 0.00949 µM
  viability, T/C: 99.3%
Second compound 0.1 µM, first compound 0.03 µM
  viability, T/C: 73%
Second compound 0.1 µM, first compound 0.0949 µM
  viability, T/C: 56.1%
Second compound 0.1 µM, first compound 0.3 µM
  viability, T/C: 43.9%
Second compound 0.1 µM, first compound 0.949 µM
  viability, T/C: 35.4%
Second compound 0.1 µM, first compound 3 µM
  viability, T/C: 31.6%
Second compound 0.316 µM, first compound 0.00949 µM
  viability, T/C: 103%
Second compound 0.316 µM, first compound 0.03 µM
  viability, T/C: 79.6%
Second compound 0.316 µM, first compound 0.0949 µM
  viability, T/C: 55.6%
Second compound 0.316 µM, first compound 0.3 µM
  viability, T/C: 41.9%
Second compound 0.316 µM, first compound 0.949 µM
  viability, T/C: 39.8%
Second compound 0.316 µM, first compound 3 µM
  viability, T/C: 34.9%
Second compound 1 µM, first compound 0.00949 µM
  viability, T/C: 106%
Second compound 1 µM, first compound 0.03 µM
  viability, T/C: 81%
Second compound 1 µM, first compound 0.0949 µM
  viability, T/C: 48.8%
Second compound 1 µM, first compound 0.3 µM
  viability, T/C: 38.8%
Second compound 1 µM, first compound 0.949 µM
  viability, T/C: 41.3%
Second compound 1 µM, first compound 3 µM
  viability, T/C: 31.4%
Second compound 3.16 µM, first compound 0.00949 µM
  viability, T/C: 90.6%
Second compound 3.16 µM, first compound 0.03 µM
  viability, T/C: 67.7%
Second compound 3.16 µM, first compound 0.0949 µM
  viability, T/C: 43.7%
Second compound 3.16 µM, first compound 0.3 µM
  viability, T/C: 37.7%
Second compound 3.16 µM, first compound 0.949 µM
  viability, T/C: 33.5%
Second compound 3.16 µM, first compound 3 µM
  viability, T/C: 27.9%
Second compound 10 µM, first compound 0.00949 µM
  viability, T/C: 82.4%
Second compound 10 µM, first compound 0.03 µM
  viability, T/C: 59.5%
Second compound 10 µM, first compound 0.0949 µM
  viability, T/C: 37.4%
Second compound 10 µM, first compound 0.3 µM
  viability, T/C: 44.5%
Second compound 10 µM, first compound 0.949 µM
  viability, T/C: 31.9%
Second compound 10 µM, first compound 3 µM
  viability, T/C: 28.5%

## Nc1ncn(C2CC(O)C(CO)O2)c(=O)n1 (stereo not given) + NC1CC1c1ccc(-c2cccc(O)c2)cc1
Second compound 0.1 µM
  IC50: > 1000 nM
Second compound 0.316 µM
  IC50: > 1000 nM
Second compound 1 µM
  IC50: > 1000 nM
Second compound 3.16 µM
  IC50: > 1000 nM
Second compound 10 µM
  IC50: > 1000 nM
Second compound 0.1 µM, first compound 0.00316 µM
  viability, T/C: 104%
Second compound 0.1 µM, first compound 0.01 µM
  viability, T/C: 101%
Second compound 0.1 µM, first compound 0.0316 µM
  viability, T/C: 87.3%
Second compound 0.1 µM, first compound 0.1 µM
  viability, T/C: 75.2%
Second compound 0.1 µM, first compound 0.316 µM
  viability, T/C: 64.7%
Second compound 0.1 µM, first compound 1 µM
  viability, T/C: 56.8%
Second compound 0.316 µM, first compound 0.00316 µM
  viability, T/C: 110%
Second compound 0.316 µM, first compound 0.01 µM
  viability, T/C: 108%
Second compound 0.316 µM, first compound 0.0316 µM
  viability, T/C: 87.5%
Second compound 0.316 µM, first compound 0.1 µM
  viability, T/C: 76.5%
Second compound 0.316 µM, first compound 0.316 µM
  viability, T/C: 67.7%
Second compound 0.316 µM, first compound 1 µM
  viability, T/C: 65.1%
Second compound 1 µM, first compound 0.00316 µM
  viability, T/C: 110%
Second compound 1 µM, first compound 0.01 µM
  viability, T/C: 122%
Second compound 1 µM, first compound 0.0316 µM
  viability, T/C: 96.8%
Second compound 1 µM, first compound 0.1 µM
  viability, T/C: 83%
Second compound 1 µM, first compound 0.316 µM
  viability, T/C: 65.9%
Second compound 1 µM, first compound 1 µM
  viability, T/C: 56.1%
Second compound 3.16 µM, first compound 0.00316 µM
  viability, T/C: 107%
Second compound 3.16 µM, first compound 0.01 µM
  viability, T/C: 114%
Second compound 3.16 µM, first compound 0.0316 µM
  viability, T/C: 92.9%
Second compound 3.16 µM, first compound 0.1 µM
  viability, T/C: 74.8%
Second compound 3.16 µM, first compound 0.316 µM
  viability, T/C: 60.5%
Second compound 3.16 µM, first compound 1 µM
  viability, T/C: 51.8%
Second compound 10 µM, first compound 0.00316 µM
  viability, T/C: 107%
Second compound 10 µM, first compound 0.01 µM
  viability, T/C: 86.5%
Second compound 10 µM, first compound 0.0316 µM
  viability, T/C: 74%
Second compound 10 µM, first compound 0.1 µM
  viability, T/C: 64.5%
Second compound 10 µM, first compound 0.316 µM
  viability, T/C: 61.7%
Second compound 10 µM, first compound 1 µM
  viability, T/C: 52.1%
